Test results as given in patent US6132750A (Coletica, priority 1998, dated 2000).

Experiment: Inhibition of the Fe2+ induced radical degradation of hyaluronic acid (viscosity drop)
Settings: for Index of protection (%): hyaluronic acid 10 g/l, Fe2+ 620 ppm; for effect on the depolymerisation (radical cleavage) of hyaluronic acid in the presence of iron: in words
Experimental: The chelating microspheres prepared according to I2 are used to evaluate their capacity, via the trapping of ferrous iron Fe2+, to inhibit the radical degradation of hyaluronic acid, glycosarinoglycan implied in the moisturisation of the human dermis, which is therefore a particularly important target to protect in cosmetic and dermo-pharmaceutical applications.
A 10 g/l solution of hyaluronic acid of high molecular weight (>1,000,000g/mol or Daltons) is prepared in demineralised water. To this solution is added an amount of Fe2+ of 620 ppm.
Other chelating agents which are conventionally used in cosmetics were used and compared to the chelating microspheres, for their capacity to reduce the radical degradation of hyaluronic acid. Indices of protection, expressed in % of protection, are calculated by carrying out a ratio of the drop in viscosity observed by the presence of iron Fe2+ (620 ppm) in the presence of the chelating agent studied, and the drop in viscosity observed with and without iron Fe2+.

**Q.** Which “Index of protection (%)” value (concentration used 6.25 g/l) does the source give for `NO` [Hydroxylamine] here?
**A.** The value was 0%.

**Q.** What does the source list for Transferrin?
**A.** Index of protection (%) (concentration used 125 mg/l): 8.7%; effect on the depolymerisation (radical cleavage) of hyaluronic acid in the presence of iron: accelerated

**Q.** What does the source list for `O/N=C(/C(=N/O)c1ccco1)c1ccco1` [2-furyldioxime]?
**A.** Index of protection (%) (concentration used 1.56 g/l): 23.5%; Index of protection (%) (concentration used 9.37 g/l): 50%

**Q.** For `O=C(O)CN(CCN(CC(=O)O)CC(=O)O)CC(=O)O` [EDTA], which “effect on the depolymerisation (radical cleavage) of hyaluronic acid in the presence of iron” value is on record?
**A.** The value was “accelerated”.
